Assay results taken from PubChem BioAssay (NCI).
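96-well plates; 48 h exposure; 5 concentrations. Endpoints by linear interpolation between flanking doses. Not reached: highest tested concentration assigned. TGI marks complete inhibition of growth.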

Assays:
Test in all cases: DTP human tumour cell line panel, 48 h
[1] = test system: M19-MEL melanoma
[2] = test system: SNB-78 CNS
[3] = test system: DMS 273 small cell lung
[4] = test system: DLD-1 colon
[5] = test system: LXFL 529 NSCLC
[6] = test system: HOP-18 NSCLC
[7] = test system: XF 498 CNS

How did the TGI [1] turn out when `Cc1ccc(NP(=O)(Oc2ccccc2)N(CCCl)CCCl)cc1` (centres undefined) was run?
The TGI was greater than 100 µM.

What about the TGI [2] of the same compound?
The TGI was greater than 100 µM.

And the TGI [3]?
Its TGI is greater than 100 µM.

And the TGI [4]?
Its TGI is greater than 100 µM.

What about the TGI [5] of the same compound?
The TGI was greater than 100 µM.

And the TGI [6]?
Its TGI is greater than 100 µM.

What does the source list for `CSc1nc(NC2OCC(OC(C)=O)C(OC(C)=O)C2OC(C)=O)c(N=C(C)C(C)=O)c(=O)[nH]1` (centres undefined)?
TGI [7]: > 100 µM; TGI [2]: > 100 µM; TGI [3]: > 100 µM; TGI [4]: > 100 µM; TGI [5]: > 100 µM; TGI [6]: > 100 µM

`C=CCc1cc(-c2cc(CC=C)c(O)c(CNC)c2)cc(CNC)c1O` was tested. Which TGI [1] did it give?
Its TGI is 27.2 µM.

And the TGI [7]?
Its TGI is 30.3 µM.

What about the TGI [2] of the same compound?
The TGI was 40.8 µM.

What about the TGI [4] of the same compound?
The TGI was 29.3 µM.

And the TGI [5]?
The TGI was 28.5 µM.

Which TGI [1] does the source give for `CCCCCCCCCCCCCCCc1ccc(OCC(O)CO)cc1` (centres undefined) here?
Its TGI is 33.4 µM.

And the TGI [7]?
The TGI was 39.3 µM.

What about the TGI [2] of the same compound?
The TGI was 99.3 µM.

What about the TGI [3] of the same compound?
Its TGI is 33.3 µM.

What about the TGI [4] of the same compound?
Its TGI is greater than 100 µM.

And the TGI [5]?
The TGI was 68 µM.

And the TGI [6]?
Its TGI is greater than 100 µM.

For `Cc1nc2c(n1C)C(=O)c1nc(CBr)[nH]c(=O)c1C2=O`, which TGI [1] is on record?
Its TGI is greater than 100 µM.

And the TGI [3]?
The TGI was greater than 100 µM.

And the TGI [4]?
Its TGI is greater than 100 µM.

And the TGI [5]?
Its TGI is greater than 100 µM.

And the TGI [6]?
The TGI was greater than 100 µM.
